# Test results from US20250120989A1, “BRIDGED TRICYCLIC CARBAMOYLPYRIDONE COMPOUNDS AND USES THEREOF” (priority 2023, published 2025).
# Columns and labels:
# [1] = Dog PO pharmacokinetic studies with P-gp inhibitor encequidar mesylate (Example E); type: in vivo, beagle dog; conditions: for AUCinf, CMAX and oral bioavailability when administered with encequidar mesylate versus without / AUC(0-inf) / Cmax / bioavailability: dosed compound measured; for AUCinf, CMAX and oral bioavailability when administered with encequidar mesylate versus without: Table 5 versus Table 4, FIG. 1 and 2; for AUC(0-inf) / Cmax / bioavailability: male, beagle, plasma, dog PO 4 mg/kg, encequidar mesylate 5 mg-eq/kg PO about 30 min before
# Description: Three male beagle dogs were fasted overnight. […] Individual doses were calculated based on body weights recorded on the day of dose administration. […] This was followed by an additional 20 mL of water administered via oral gavage. The total flush volume was approximately 30 mL. Individual doses were administered on a […]. In all cases, food was returned at approximately 4 hours after dosing. […] Bioanalysis was carried out according to Example C.
# physchem = conditions: FaSSIF, 23 °C, thermodynamic from solid
# in vitro = conditions: human, uninfected MT-4 cells
# HIV-1 (IIIB) = assay: microbe, parasite or virus in culture; type: cell-based; conditions: Human immunodeficiency virus 1, MT4, 120 h; HIV-1 (IIIB) replication in MT-4 cells, 5 days, Cell Titer Glo; read-out: MT4 EC50
Compound,"AUCinf, CMAX and oral bioavailability when administered with encequidar mesylate versus without ([1]; dog PO)",AUC(0-inf) [1] [µM·h],Cmax [1] [µM],bioavailability [1] [%],solubility thermodynamic at 24 h (physchem) [µg/mL],CC50 at 5 days (in vitro) [µM],EC50 (HIV-1 (IIIB)) [µM],"AUCinf, CMAX and oral bioavailability of Intermediate C when prodrug is administered with encequidar mesylate versus without ([1]; dog PO, Intermediate C measured, Table 5 Entry 3 versus Table 4 Entry 3, FIG. 3)"
"COC1=NO[C@@]2(CC[C@H](C)N3C[C@H]2n2cc(C(=O)NCc4ccc(F)cc4F)c(=O)c(O)c2C3=O)C1 [Intermediate C, (3′S,5S,7′R)—N-(2,4-difluorobenzyl)-12′-hydroxy-3-methoxy-3′-methyl-1′,11′-dioxo-1′,4′,5′,11′-tetrahydro-3′H,4H,7′H-spiro[isoxazole-5,6′-[2,7]methanopyrido[1,2-a][1,4]diazonine]-10′-carboxamide]",increased,2300 ± 171,62 ± 3.5,82.3 ± 13.4,–,–,–,–
"COC1=NO[C@@]2(CC[C@H](C)N3C[C@H]2n2cc(C(=O)NCc4ccc(F)cc4F)c(=O)c(OCOC(=O)OC(C)(C)COP(=O)(O)O)c2C3=O)C1 [Compound 63, (((3′S,5S,7′R)-10′-((2,4-difluorobenzyl)carbamoyl)-3-methoxy-3′-methyl-1′,11′-dioxo-1′,4′,5′,11′-tetrahydro-3′H,4H,7′H-spiro[isoxazole-5,6′-[2,7]methanopyrido[1,2-a][1,4]diazonin]-12′-yl)oxy)methyl (2-methyl-1-(phosphonooxy)propan-2-yl) carbonate]",–,–,–,–,4620,35.4,0.00512,–
"CC1=NO[C@@]2(CC[C@H](C)N3C[C@H]2n2cc(C(=O)NCc4ccc(F)cc4F)c(=O)c(OCOC(=O)O[C@@H](C)[C@H](C)OP(=O)(O)O)c2C3=O)C1 [Compound 28, (((3′S,5S,7′R)-10′-((2,4-difluorobenzyl)carbamoyl)-3,3′-dimethyl-1′,11′-dioxo-1′,4′,5′,11′-tetrahydro-3′H,4H,7′H-spiro[isoxazole-5,6′-[2,7]methanopyrido[1,2-a][1,4]diazonin]-12′-yl)oxy)methyl ((2S,3S)-3-(phosphonooxy)butan-2-yl) carbonate]",–,–,–,–,4400,28.9,0.00485,–
"CC1=NO[C@@]2(CC[C@H](C)N3C[C@H]2n2cc(C(=O)NCc4ccc(F)cc4F)c(=O)c(OCOC(=O)CC(C)(C)CN(CC(=O)O)C(=O)OCOP(=O)(O)O)c2C3=O)C1 [Compound 42, N-(4-((((3′S,5S,7′R)-10′-((2,4-difluorobenzyl)carbamoyl)-3,3′-dimethyl-1′,11′-dioxo-1′,4′,5′,11′-tetrahydro-3′H,4H,7′H-spiro[isoxazole-5,6′-[2,7]methanopyrido[1,2-a][1,4]diazonin]-12′-yl)oxy)methoxy)-2,2-dimethyl-4-oxobutyl)-N-(((phosphonooxy)methoxy)carbonyl)glycine]",–,–,–,–,5080,10.3,0.00106,–
"CC1=NO[C@@]2(CC[C@H](C)N3C[C@H]2n2cc(C(=O)NCc4ccc(F)cc4F)c(=O)c(OCOC(=O)N(C)CCN(CC(=O)O)C(=O)OCOP(=O)(O)O)c2C3=O)C1 [Compound 21, N-(2-((((((3′S,5S,7′R)-10′-((2,4-difluorobenzyl)carbamoyl)-3,3′-dimethyl-1′,11′-dioxo-1′,4′,5′,11′-tetrahydro-3′H,4H,7′H-spiro[isoxazole-5,6′-[2,7]methanopyrido[1,2-a][1,4]diazonin]-12′-yl)oxy)methoxy)carbonyl)(methyl)amino)ethyl)-N-(((phosphonooxy)methoxy)carbonyl)glycine]",–,–,–,–,5040,15.2,0.0015,–
"CC1=NO[C@@]2(CC[C@H](C)N3C[C@H]2n2cc(C(=O)NCc4ccc(F)cc4F)c(=O)c(OC(=O)OCC(C)(C)COP(=O)(O)O)c2C3=O)C1 [Compound 13, (3′S,5S,7′R)-10′-((2,4-difluorobenzyl)carbamoyl)-3,3′-dimethyl-1′,11′-dioxo-1′,4′,5′,11′-tetrahydro-3′H,4H,7′H-spiro[isoxazole-5,6′-[2,7]methanopyrido[1,2-a][1,4]diazonin]-12′-yl (2,2-dimethyl-3-(phosphonooxy)propyl) carbonate]",–,–,–,–,4380,14,0.00198,–
"COC1=NO[C@@]2(CC[C@H](C)N3C[C@H]2n2cc(C(=O)NCc4ccc(F)cc4F)c(=O)c(OCOC(=O)OCC(C)(C)COP(=O)(O)O)c2C3=O)C1 [Compound 32, (((3′S,5S,7′R)-10′-((2,4-difluorobenzyl)carbamoyl)-3-methoxy-3′-methyl-1′,11′-dioxo-1′,4′,5′,11′-tetrahydro-3′H,4H,7′H-spiro[isoxazole-5,6′-[2,7]methanopyrido[1,2-a][1,4]diazonin]-12′-yl)oxy)methyl (2,2-dimethyl-3-(phosphonooxy)propyl) carbonate]",–,–,–,–,4800,17.7,0.00292,–
"COC1=NO[C@@]2(CC[C@H](C)N3C[C@H]2n2cc(C(=O)NCc4ccc(F)cc4F)c(=O)c(OCOC(=O)OCCOP(=O)(O)O)c2C3=O)C1 [Compound 3, (((3′S,5S,7′R)-10′-((2,4-difluorobenzyl)carbamoyl)-3-methoxy-3′-methyl-1′,11′-dioxo-1′,4′,5′,11′-tetrahydro-3′H,4H,7′H-spiro[isoxazole-5,6′-[2,7]methanopyrido[1,2-a][1,4]diazonin]-12′-yl)oxy)methyl (2-(phosphonooxy)ethyl) carbonate]",–,–,–,–,6650,13,0.00046,increased
"CC1=NO[C@@]2(CC[C@H](C)N3C[C@H]2n2cc(C(=O)NCc4ccc(F)cc4F)c(=O)c(OCOC(=O)OCC(C)(C)CN(CC(=O)O)C(=O)OCOP(=O)(O)O)c2C3=O)C1 [Compound 37, N-(3-((((((3′S,5S,7′R)-10′-((2,4-difluorobenzyl)carbamoyl)-3,3′-dimethyl-1′,11′-dioxo-1′,4′,5′,11′-tetrahydro-3′H,4H,7′H-spiro[isoxazole-5,6′-[2,7]methanopyrido[1,2-a][1,4]diazonin]-12′-yl)oxy)methoxy)carbonyl)oxy)-2,2-dimethylpropyl)-N-(((phosphonooxy)methoxy)carbonyl)glycine]",–,–,–,–,4980,11.1,0.00149,–
"CC1=NO[C@@]2(CC[C@H](C)N3C[C@H]2n2cc(C(=O)NCc4ccc(F)cc4F)c(=O)c(O)c2C3=O)C1 [Intermediate B, (3′S,5S,7′R)—N-(2,4-difluorobenzyl)-12′-hydroxy-3,3′-dimethyl-1′,11′-dioxo-1′,4′,5′,11′-tetrahydro-3′H,4H,7′H-spiro[isoxazole-5,6′-[2,7]methanopyrido[1,2-a][1,4]diazonine]-10′-carboxamide]",increased,3980 ± 762,80.8 ± 4.9,70.3 ± 1.8,2,–,–,–
"CC1=NO[C@@]2(CC[C@H](C)N3C[C@H]2n2cc(C(=O)NCc4ccc(F)cc4F)c(=O)c(OCOC(=O)CC(C)(C)COP(=O)(O)O)c2C3=O)C1 [Compound 41, (((3′S,5S,7′R)-10′-((2,4-difluorobenzyl)carbamoyl)-3,3′-dimethyl-1′,11′-dioxo-1′,4′,5′,11′-tetrahydro-3′H,4H,7′H-spiro[isoxazole-5,6′-[2,7]methanopyrido[1,2-a][1,4]diazonin]-12′-yl)oxy)methyl 3,3-dimethyl-4-(phosphonooxy)butanoate]",–,–,–,–,5600,44.3,0.00309,–
"CC[C@H](COC(=O)OCOc1c2n(cc(C(=O)NCc3ccc(F)cc3F)c1=O)[C@@H]1CN(C2=O)[C@@H](C)CC[C@]12CC(OC)=NO2)OP(=O)(O)O [Compound 65, (((3′S,5S,7′R)-10′-((2,4-difluorobenzyl)carbamoyl)-3-methoxy-3′-methyl-1′,11′-dioxo-1′,4′,5′,11′-tetrahydro-3′H,4H,7′H-spiro[isoxazole-5,6′-[2,7]methanopyrido[1,2-a][1,4]diazonin]-12′-yl)oxy)methyl ((R)-2-(phosphonooxy)butyl) carbonate]",–,–,–,–,3880,14.1,0.00102,–
